One series has as its system Phytophthora capsici. The series can be described thus: microbe, parasite or virus in culture. The series is classed as cell-based. The conditions noted are these: 72 h, 3 days at room temperature, read-out: PHY percent inhibition of fungal growth.
Series [1] can be described thus: Tobacco root assay for phytotoxicity (in vitro root elongation). The conditions noted are these: 7 days, 27° C., read-out: Tob. EC50. The protocol:
The compounds of Examples 1-20 were tested in vitro for fungicidal activity and phytotoxicity.
B. The compounds were tested in vitro for phytotoxicity in a tobacco root elongation assay.
Tobacco root assay for Phytotoxicity:
A dilution series of test compound was prepared in dimethylsulfoxide and 20 ul of each dilution was added to 20 ml of molten nutrient medium, consisting of Murashige and Skoog salt base, 2% sucrose and 1% agar, to give the desired concentrations of test compound. The mixtures were poured immediately into 9 cm diameter petri dishes. Surface-sterilized tobacco seeds were placed on each plate (20 seeds per plate) and the plates incubated in a vertical position in a 27° C. incubator with a 16 hour photoperiod. After 7 days the mean root lengths were calculated, and EC50 values determined from dose response curves.
Results of the tobacco root assay are set forth below in Table 3 as Tob. EC50 (ppm).

Another series has as its system Cercospora arachidicola. Kind of series: Peanut Cercospora (PC). The conditions noted are these: in vivo.
The subject of another series is Pythium ultimum. Kind of series: Fungitoxicity assay against Pythium ultimum (in vitro, mycelial dry weight). In kind it is cell-based. The conditions noted are these: Globisporangium ultimum, 48 hours at 25° C., read-out: Pythium EC50. On the procedure: The compounds of Examples 1-20 were tested in vitro for fungicidal activity and phytotoxicity. A. The compounds were tested in vitro for fungicidal activity against Pythium ultimum, Botrytis cinerea and Venturia inaequalis. Fungitoxicity assay against Pythium ultimum: A dilution series of test compound was prepared in dimethylsulfoxide, and 0.1 milliliter (ml) of each dilution was added to 19.9 ml of a liquid asparagine-sucrose broth ([…]. and Katznelson, K., 1971, Can. J. […] Each plate was inoculated with a mycelial plug, 7 millimeters (mm) in diameter, taken from the growing edge of a culture of Pythium ultimum grown on potato dextrose agar. Two replicate plates were used for each treatment. The increase in mycelial dry weight was determined after growth for 48 hours at 25° C. with shaking on a gyrotary shaker at 60 revolutions per minute (rpm). EC50 values were calculated from dose response curves. As used herein, the terminology "EC50" means the concentration of test compound required to inhibit growth by 50% as compared to a control lacking the test compound. Results of the testing for fungicidal activity against the above named fungi are set forth below in Table 3 as Pythium EC50 (ppm), Botrytis EC50 (ppm) and Venturia MIC (ppm), respectively.

The subject of a further series is Botrytis cinerea. Kind of series: Fungitoxicity assay against Botrytis cinerea (in vitro, colony diameter). The series is classed as cell-based. Particulars: 48 hours at 25° C., read-out: Botrytis EC50. The protocol:
The compounds of Examples 1-20 were tested in vitro for fungicidal activity and phytotoxicity. A. The compounds were tested in vitro for fungicidal activity against Pythium ultimum, Botrytis cinerea and Venturia inaequalis. Fungitoxicity assay against Botrytis cinerea: […] The mixtures were poured immediately into 9 centimeter (cm) diameter petri dishes. Two replicate plates were used for each treatment. Each plate was inoculated with a 7 mm diameter plug taken from the growing edge of a 5 day old culture of B. cinerea on potato dextrose agar. […] Results of the testing for fungicidal activity against the above named fungi are set forth below in Table 3 as Pythium EC50 (ppm), Botrytis EC50 (ppm) and Venturia MIC (ppm), respectively.

In brackets after ≈: the same amount, converted by molar mass.

In the case of `CCC(C)(NC(=O)c1cc(C)cc(C=NOC)c1)C(=O)CCl` (centres unmarked) [Example 12, N-[3'-(1'-chloro-3'-methyl-2'-oxopentan)]-3-methoxyiminomethyl-5-methylbenzamide], the inhibition at 25 ppm in the series on Phytophthora capsici was determined as 100%. In series [1], the IC50 at 168 h came to 0.38 µg/mL (≈ 1.17 µM). For the same compound, in the series on Cercospora arachidicola, the “PC percent disease control” value was determined as 80%. Besides, the IC50 in the series with Pythium ultimum was 0.16 µg/mL (≈ 0.493 µM); in the series with Botrytis cinerea, 0.28 µg/mL (≈ 0.862 µM).

The values are drawn from US5254584A, “N-acetonylbenzamides and their use as fungicides” (Rohm and Haas Company, priority 1992, dated 1993).
